Here are results for 17 compounds from patent publication US11390604B2 (Hoffmann-La Roche Inc., priority 2019, dated 2022).

Structures can show the parent of a compound that is named as a salt.

One test deals with Acinetobacter baumannii ATCC 17961. Put plainly: Antimicrobial susceptibility testing: 90% growth inhibitory concentration (IC90) determination. Type of test: cell-based. The conditions noted are these: ATCC17961, Acinetobacter baumannii ATCC 17961, Iso-Sensitest broth, read-out: ATCC 17961 IC90. The gist of the method: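 Growth was followed kinetically by OD600 at 20-min intervals for 16 h at 35±2 °C, with ~5×10^5 CFU/ml in Iso-Sensitest broth. Compounds were tested as twofold dilutions (e.g. 50–0.097 μM final). The concentration giving 90% inhibition of log-phase growth was reported.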
As for `Cn1c(-c2cn(CC#N)nc2C(F)(F)F)cnc1C(=O)Nc1ccc(C(=O)N[C@H]2CC[C@@H](NC(=O)[C@H]3C[C@H](N)C3)CC2)c(Cl)c1` [Example 372, rac-N-(4-(((1S,4s)-4-((1r,3R)-3-aminocyclobutane-1-carboxamido)cyclohexyl)car-bamoyl)-3-chlorophenyl)-5-(1-(cyanomethyl)-3-(trifluoromethyl)-1H-pyrazol-4-yl)-1-methyl-1H-imidazole-2-carboxamide 2,2,2-trifluoroacetate], the IC90 turned out to be 486 nM.

Take `Cn1c(-c2cn(CC3CC3)nc2C(F)(F)F)cnc1C(=O)Nc1ccc(C(=O)NCC2CN(C(=O)N[C@H]3C[C@@H](N)C3)C2)c(Cl)c1` [Example 373, rac-N-(4-(((1-(((1s,3s)-3-aminocyclobutyl)carbamoyl)aze-tidin-3-yl)methyl)carbamoyl)-3-chlorophenyl)-5-(1-(cyclopropylmethyl)-3-(trifluoromethyl)-1H-pyrazol-4-yl)-1-methyl-1H-imidazole-2-carboxamide formate]: the IC90 turned out to be 494 nM.

On to `CCn1cc(-c2cnc(C(=O)Nc3ccc(C(=O)N4CCN(C(=O)C5CCNCC5)CC4)c(Br)c3)n2C)c(C(F)(F)F)n1` [Example 374, N-(3-bromo-4-(4-(piperidine-4-carbonyl)piperazine-1-carbonyl)phenyl)-5-(1-ethyl-3-(trifluoromethyl)-1H-pyrazol-4-yl)-1-methyl-1H-imidazole-2-carboxamide hydrochloride], for which the 90% effect concentration (IC90) came to 495 nM.

Take `Cn1c(-c2cn(CC(F)F)nc2C(F)(F)F)cnc1C(=O)Nc1ccc(C(=O)N2CCN(CC(=O)NCCN)CC2)c(Cl)c1` [Example 375, N-(4-(4-(2-((2-aminoethyl)amino)-2-oxoethyl)piperazine-1-carbonyl)-3-chlorophenyl)-5-(1-(2,2-difluoroethyl)-3-(trifluoromethyl)-1H-pyrazol-4-yl)-1-methyl-1H-imidazole-2-carboxamide formate]: the IC90 was 495 nM.

`Cn1c(-c2cn(C3CC3)nc2C(F)(F)F)cnc1C(=O)Nc1ccc(C(=O)NCCCCCCNC(=O)NCC2CNC2)c(Cl)c1` [Example 378, N-[4-[6-(azetidin-3-ylmethylcarbamoylamino)hexyl-carbamoyl]-3-chlorophenyl]-5-[1-cyclopropyl-3-(trifluoromethyl)pyrazol-4-yl]-1-methylimidazole-2-carboxamide;formic acid]: the IC90 was determined as 497 nM.

Regarding `Cn1c(-c2cn(C3CC3C(F)(F)F)nc2C(F)(F)F)cnc1C(=O)Nc1ccc(C(=O)N2CCN(C(=O)C3CCNCC3)CC2)c(Cl)c1` (centres unmarked) [Example 379, N-(3-chloro-4-(4-(piperidine-4-carbonyl)piperazine-1-carbonyl)phenyl)-1-methyl-5-(3-(trifluoromethyl)-1-(2-(trifluoromethyl)cyclopropyl)-1H-pyrazol-4-yl)-1H-imidazole-2-carboxamide formate], the IC90 turned out to be 499 nM.

In the case of `Cn1c(-c2cn([C@@H]3CC3(F)F)nc2C(F)(F)F)cnc1C(=O)Nc1ccc(C(=O)N[C@H]2[C@@H]3CN(C(=O)N[C@H]4CNC[C@@H]4O)C[C@@H]32)c(Cl)c1` [Example 380, (1R,5S,6R)-6-(2-chloro-4-(5-(1-((R)-2,2-difluorocyclopropyl)-3-(trifluoromethyl)-1H-pyrazol-4-yl)-1-methyl-1H-imidazole-2-carboxamido)benzamido)-N-((3S,4S)-4-hydroxypyrrolidin-3-yl)-3-azabicyclo[3.1.0]hexane-3-carboxamide], the concentration for an effect of 90% (IC90) is 104 nM.

Regarding `Cn1c(-c2cn(C3CC3)nc2C(F)(F)F)cnc1C(=O)Nc1ccc(C(=O)N2CCN(C(=O)[C@H]3[C@@H]4CNC[C@@H]43)CC2)c(Cl)c1` [Example 383, N-[3-chloro-4-[4-[rac-(1R,5S)-3-azabicyclo[3.1.0]hexane-6-carbonyl]piperazine-1-carbonyl]phenyl]-5-[1-cyclopropyl-3-(trifluoromethyl)pyrazol-4-yl]-1-methylimidazole-2-carboxamide;hydrochloride], the concentration for an effect of 90% (IC90) turned out to be 234 nM.

Consider `C#CCn1cc(-c2cnc(C(=O)Nc3ccc(C(=O)N[C@H]4[C@@H]5CN(C(=O)N[C@@H]6CNC[C@H]6O)C[C@@H]54)c(Cl)c3)n2C)c(C(F)(F)F)n1` [Example 384, (1R,5S,6s)-6-(2-chloro-4-(1-methyl-5-(1-(prop-2-yn-1-yl)-3-(trifluoromethyl)-1H-pyrazol-4-yl)-1H-imidazole-2-carboxamido)benzamido)-N-((3R,4R)-4-hydroxypyrrolidin-3-yl)-3-azabicyclo[3.1.0]hexane-3-carboxamide formate], for which the IC90 is 64 nM.

On to `Cn1c(-c2cn(CC(F)F)nc2C(F)(F)F)cnc1C(=O)Nc1ccc(C(=O)N[C@H]2[C@@H]3CN(C(=O)N[C@@H]4CNC[C@H]4O)C[C@@H]32)c(Cl)c1` [Example 386, (1R,5S,6s)-6-(2-chloro-4-(5-(1-(2,2-difluoroethyl)-3-(trifluoromethyl)-1H-pyrazol-4-yl)-1-methyl-1H-imidazole-2-carboxamido)benzamido)-N-((3R,4R)-4-hydroxypyrrolidin-3-yl)-3-azabicyclo[3.1.0]hexane-3-carboxamide formate], for which the 90% effect concentration (IC90) came out at 110 nM.

With `C=CCn1cc(-c2cnc(C(=O)Nc3ccc(C(=O)N[C@H]4[C@@H]5CN(C(=O)N[C@@H]6CNC[C@H]6O)C[C@@H]54)c(Cl)c3)n2C)c(C(F)(F)F)n1` [Example 387, (1R,5S,6s)-6-(4-(5-(1-allyl-3-(trifluoromethyl)-1H-pyrazol-4-yl)-1-methyl-1H-imidazole-2-carboxamido)-2-chlorobenzamido)-N-((3R,4R)-4-hydroxypyrrolidin-3-yl)-3-azabicyclo[3.1.0]hexane-3-carboxamide formate], the IC90 was determined as 130 nM.

As to `Cn1c(-c2cn(CC3CCC3)nc2C(F)(F)F)cnc1C(=O)Nc1ccc(C(=O)N[C@H]2[C@@H]3CN(C(=O)N[C@@H]4CNC[C@H]4O)C[C@@H]32)c(Cl)c1` [Example 388, (1R,5S,6s)-6-(2-chloro-4-(5-(1-(cyclobutylmethyl)-3-(trifluoromethyl)-1H-pyrazol-4-yl)-1-methyl-1H-imidazole-2-carboxamido)benzamido)-N-((3R,4R)-4-hydroxypyrrolidin-3-yl)-3-azabicyclo[3.1.0]hexane-3-carboxamide formate], the 90% effect concentration (IC90) worked out at 170 nM.

The same test, now with this note: Acinetobacter baumannii ATCC 17961, Iso-Sensitest broth, read-out: ATCC 17961 IC90.
Take “N-(3-amino-3- methylcyclobutyl)-4-[2-chloro- 4-[[5-[1-cyclopropyl-3- (trifluoromethyl)pyrazol-4-yl]- 1-methylimidazole-2- carbonyl]amino]benzoyl]pipera- zine-1-carboxamide;formic acid [Example 238]”: the 90% effect concentration (IC90) was 273 nM.

On to “N-[4-[4-[(3S)-3-carbonyl]piperazine-1-carbonyl]-3-chlorophenyl]-1-methyl-5-[1-prop-2-ynyl-3-(trifluoromethyl)pyrazol-4-yl]imidazole-2-carboxamide [Example 80]”, for which the IC90 stood at 212 nM.

On to “N-[4-[(4-aminocyclohexyl)carbamoyl]-3-chlorophenyl]-1-methyl-5-[3-(trifluoromethyl)-1H-pyrazol-4-yl]imidazole-2-carboxamide;2,2,2-trifluoroacetic acid [Example 123]”, for which the IC90 came out at 3840 nM.

In the case of “formic acid;rac-(1S,5R)-8-[2- chloro-4-[[5-[1-(2,2- difluorocyclopropyl)-3- (trifluoromethyl)pyrazol-4-yl]- 1-methyl-imidazole-2- carbonyl]amino]benzoyl]-N- [rac-(3S,4S)-4- hydroxypyrrolidin-3-yl]-3,8- diazabicyclo[3.2.1]octane-3- carboxamide [Example 377]”, the IC90 was found to be 497 nM.

In the case of “rac-4-(2-chloro-4-(5-(1- cyclopropyl-3-(trifluoromethyl)- 1H-pyrazol-4-yl)-1-methyl-1H- imidazole-2- carboxamido)benzoyl)-N- ((1s,3s)-3- (methylamino)cyclobutyl)pipera- zine-1-carboxamide formate [Example 256]”, the IC90 worked out at 313 nM.

The term IC90 denotes the concentration at which the effect reaches the 90% level.
